Data on 1 compound can be found in paper PMC9975351 (Frontiers in Pharmacology, 2023).

One data set addresses T1, CYP3A4 (Homo sapiens, UniProt P08684).
T1 construct: purchased Cypex (Dundee, UK); host or cells: bactosomes (bacterial membranes)
In words: Reaction phenotyping with recombinant CYP3A4. In kind it is in vitro ADME. As to conditions: 1 µM, 50 pmol/mL recombinant CYP3A4, NADPH, 60 min, vs control. As for the experimental part:
(§1) Reactions were conducted in triplicate using 0.1 M PPB (pH 7.4) in eight-well tube strips in an 8 × 12 rack. […] The mixture was pre-incubated at 37°C with shaking at approximately 100 rpm for 5 min. Reactions were initiated by the addition of the NADPH-regenerating system and quenched with 200 µL ice-cold acetonitrile containing 50 nM CBZ. The samples were centrifuged at 1,000 × g and 4°C for 20 min, and the supernatants were subjected to LC-QTOF HRMS. […] The reaction was incubated, initiated, terminated, centrifuged then analyzed using the same method described above.
(§2) Reaction phenotyping is the identification of isoforms involved in drug metabolism and is important for the decipherment of drug biotransformation pathways and understanding of possible drug-drug interactions. M6, M7, and M8 were also detected in recombinant CYP incubations.

For data set [1], the target named is T2, CYP2D6 (Homo sapiens, UniProt P10635). The format is in vitro ADME. The arrangement: purchased Cypex (Dundee, UK); host or cells: bactosomes (bacterial membranes). As to conditions: 1 µM, 50 pmol/mL recombinant CYP2D6, NADPH, 60 min, vs control. The procedure:
as §1, §2

Data set [2] has as its target T2, CYP2D6. As to conditions: pooled HLMs, substrate cocktail. The procedure:
The drug–drug interaction potential was evaluated using a CYP cocktail assay that involved microsomal incubation and NADPH, as described elsewhere ([Lee et al., 2012]). […] The first reactions were initiated by NADPH addition, and each mixture was incubated in a shaking water bath at 37°C for 30 min. The final incubation was performed for 10 min with a total volume of 200 µL by adding substrates (tolbutamide (set B) as a CYP2C9 selective substrate, midazolam (set A) and testosterone (set B) as CYP3A4 selective substrates) and NADPH. The reaction was stopped and quenched by adding 200 µL of ice-cold acetonitrile containing 50 nM CBZ as internal standard, then centrifuged at 3,000 x g for 20 min. The supernatants were injected in LC-QTOF system. IC50 shift values were calculated as the ratio of the IC50 value obtained after pre-incubation without NADPH divided by the IC50 value obtained after 30 min incubation with NADPH.
The LC-QTOF system consisted of an Exion AD LC device (AB Sciex, Framingham, MA, United States) and a TripleTOF 6,600 + system (AB Sciex) equipped with an IonDrive Turbo V source operated in positive TOF information-dependent acquisition (IDA) MS2 scan mode. The TOF scan dwell time was 50 ms, and the 20 × IDA MS2 scan time was acquired with a 30-ms dwell time. […]

Data set [3] can be described thus: Metabolic stability and metabolite formation in pooled human liver microsomes with NADPH and/or UDPGA. In kind it is in vitro ADME. To be noted: for Concentration remaining, % of the initial concentration: 1 µM, HLMs; for Hepatic clearance CLh / CLint scaled at 1 µM: in vitro-in vivo extrapolation, well-stirred model; for half-life at 1 µM / microsomal CLint at 1 µM / CLint scaled at 1 µM: human, microsomes; for half-life at 1 µM: pH 7.4, 1 µM compound, read-out: Half-life; for microsomal CLint at 1 µM: read-out: Intrinsic clearance (in vitro) Clint; for CLint scaled at 1 µM: read-out: Intrinsic clearance (in vivo) CLint. As for the experimental part:
Microsomal incubation was conducted in triplicate using 0.1 M potassium phosphate buffer (PPB, pH 7.4) in eight-well tube strips in an 8 × 12 rack (1.2 mL; VWR, Emeryville, CA, United States). […] The mixture was pre-incubated at 37°C with shaking at approximately 100 rpm for 5 min. UGT glucuronidation was performed with HLMs (1 mg/mL) and alamethicin (25 μg/mg microsomal protein) in a 100-mM PPB (pH 7.4) solution on ice for 15 min. […] CYP, UGT, and combined reactions were initiated by addition of the NADPH regenerating system, UDPGA (1 mM), and both, respectively. […] The incubation mixtures were then centrifuged at 2,000 × g and 4°C for 20 min, and the supernatants were analyzed by LC-QTOF HRMS.
The incubation mixtures were pre-incubated at 37°C in a shaking water bath at approximately 100 rpm for 5 min. Reactions were initiated by the addition of an NADPH-regenerating system. The reaction was terminated, centrifuged then analyzed using the same method described above.
In the microsomal stability analysis, degradation half-life (t½) values were calculated using the following equation: t½=0.693/k where k is the first-order degradation rate constant, estimated by one-phase exponential-decay non-linear regression of the degradation time-course data using Graph Pad Prism 8.0 (Graph Pad Software Inc., San Diego, CA, United States). In vitro metabolic stability parameters, microsomal intrinsic clearance (CLint,mic), apparent intrinsic clearance (CL′int), and hepatic clearance (CLh), were calculated according to the well-stirred model approach ([Pang and Rowland, 1977]; [Baranczewski et al., 2006]). The apparent kinetic parameters of GRL0617 metabolism were determined by fitting a one-enzyme Michaelis-Menten equation. […] All data are presented as mean ± SD. Data were compared between groups using the unpaired Student’s t-test. The significance level was set at p < 0.05, unless indicated otherwise.

Molecules are shown by their SMILES. Read-outs that look alike come from different tables or passages of the source.

T2 sequence (P10635 whole entry): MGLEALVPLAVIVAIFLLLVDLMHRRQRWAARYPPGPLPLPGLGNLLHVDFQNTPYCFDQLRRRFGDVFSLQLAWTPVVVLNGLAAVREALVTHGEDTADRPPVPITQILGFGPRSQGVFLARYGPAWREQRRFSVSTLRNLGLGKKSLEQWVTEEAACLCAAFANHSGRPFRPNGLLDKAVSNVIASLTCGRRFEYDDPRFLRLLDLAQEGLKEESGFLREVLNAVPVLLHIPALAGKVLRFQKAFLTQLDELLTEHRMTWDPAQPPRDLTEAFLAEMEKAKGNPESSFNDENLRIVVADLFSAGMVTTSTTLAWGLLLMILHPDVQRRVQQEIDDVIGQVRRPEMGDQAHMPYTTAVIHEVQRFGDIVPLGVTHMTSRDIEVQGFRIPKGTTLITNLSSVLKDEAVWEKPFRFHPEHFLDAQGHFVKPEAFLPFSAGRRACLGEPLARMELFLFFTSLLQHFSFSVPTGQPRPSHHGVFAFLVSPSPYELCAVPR
T1 sequence (P08684 whole entry): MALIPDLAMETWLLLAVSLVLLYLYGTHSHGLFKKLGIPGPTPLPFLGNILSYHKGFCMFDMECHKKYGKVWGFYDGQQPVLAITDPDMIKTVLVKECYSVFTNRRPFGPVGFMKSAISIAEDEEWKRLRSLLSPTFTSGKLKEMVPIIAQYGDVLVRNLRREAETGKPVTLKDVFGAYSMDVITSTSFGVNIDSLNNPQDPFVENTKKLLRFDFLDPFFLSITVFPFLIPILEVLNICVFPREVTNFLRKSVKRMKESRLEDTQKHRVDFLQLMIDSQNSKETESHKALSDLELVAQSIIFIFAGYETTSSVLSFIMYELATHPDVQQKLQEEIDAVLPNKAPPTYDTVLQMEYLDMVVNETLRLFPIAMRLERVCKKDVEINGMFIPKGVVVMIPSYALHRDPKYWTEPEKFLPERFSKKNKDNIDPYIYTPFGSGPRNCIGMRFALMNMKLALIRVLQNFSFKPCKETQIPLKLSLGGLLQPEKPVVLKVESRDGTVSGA

As for `Cc1ccc(N)cc1C(=O)N[C@H](C)c1cccc2ccccc12` [GRL0617, 5-amino-2-methyl-N-[(1R)-1-(1-naphthalenyl)ethyl]benzamide], the GRL0617 level remaining at CYP3A4 is on record as 9.48% ± 1.26%; at CYP2D6 [1] it was 71.46% ± 3.1%. Further, on CYP2D6 [2], the “Concentrations at which CYP2D6 was inhibited” value was not below 50 µM. In addition, the Half-life in data set [3] (1 µM compound, 1 mg/mL pooled HLMs with NADPH (phase I)) amounted to 26.4 min. Further, the results for the “Concentration remaining, % of the initial concentration” value in data set [3] (60 min incubation with NADPH), in data set [3] (60 min incubation with NADPH + UDPGA) and in data set [3] (60 min incubation with UDPGA) were 44.5% ± 5.3%, 47.2% ± 7.5% and 93.4% ± 6.1%, respectively. For the same compound, in data set [3] (HLM with UDPGA only), the “Direct UGT glucuronidation” value is “No direct UGT glucuronidation was detected”. Further, the “Hepatic clearance CLh” value was 11.1 mL/min/kg in data set [3] (NADPH + UDPGA) and 11.7 mL/min/kg in data set [3] (NADPH). Moreover, the half-life at 1 µM in data set [3] (1 mg/mL pooled HLMs with NADPH (phase I)) was less than 30 min; in data set [3] (1 mg/mL pooled HLMs with NADPH + UDPGA (phase I + II)), 29.5 min. Also, the microsomal CLint at 1 µM was found to be 23.5 µL/min/mg in data set [3] (pH 7.4, HLMs with NADPH + UDPGA) and 26.3 µL/min/mg in data set [3] (pH 7.4, HLMs with NADPH). Moreover, the CLint scaled at 1 µM in data set [3] (pH 7.4, NADPH + UDPGA) is 24.1 mL/min/kg; in data set [3] (pH 7.4, NADPH), 27 mL/min/kg.
